From US9326938B2 (National Yang Ming Unviversity, priority 2013, dated 2016)

What was measured:
[1] = test system: HCT116 tumor-bearing mice; test: In vivo antitumor activity; set-up: species or system Balb-c/nude mice; settings: 10 mg/kg i.v. on days 0 and 7, compared to control mice
Protocol: (§1) The HCT116 cells were transplanted subcutaneously into the rear of 4-week female Balb-c/nude mice (1×10^6 cells/0.1 mL) At 4-6 weeks post-transplantation, HCT116 tumor-bearing mice (tumor volume: approximately 500 mm^3) were used in the antitumor activity study. Mice were treated i.v. via the tail vein on days 0 and 7. Animals were then injected with a drug PBS solution (free Dox, Dox-loaded polymer-incorporated nanoparticles, and Dox-loaded oligomer-contained nanoparticle complexes at a dose of 10 mg/kg). Tumor size was measured three weekly using a Vernier's caliper. To evaluate animal wellness and clinical status, the body weight of mice was recorded.

[2] = Body weight of mice in antitumor study; type: in vivo, Balb-c/nude mice; settings: 10 mg/kg i.v. on days 0 and 7, during the administration period
Protocol: as §1

Compound: COc1cccc2c1C(=O)c1c(O)c3c(c(O)c1C2=O)C[C@@](O)(C(=O)CO)C[C@@H]3O[C@H]1C[C@H](N)[C@H](O)[C@H](C)O1 [free Dox, doxorubicin]
- Tumor growth [1]: inhibited tumor growth
- Body weight of mice [2]: obvious weight loss
